# Test results from PubChem BioAssay (NCI).
#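 Following 48 hours of exposure in 96-well plates, responses at five concentrations were used to interpolate endpoints linearly. GI50 marks 50% less growth. TGI denotes the concentration required for complete inhibition of growth.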
# How the values were obtained:
# Assay in all cases: growth of human tumour cells (NCI), 48 h
# SNB-19 CNS = test system: SNB-19 CNS
# SN12C renal = test system: SN12C renal
# NCI-H522 lung = test system: NCI-H522 lung
# SK-MEL-28 melanoma = test system: SK-MEL-28 melanoma
# SNB-75 CNS = test system: SNB-75 CNS
# KM12 colon = test system: KM12 colon
# SF-295 CNS = test system: SF-295 CNS
# UACC-257 melanoma = test system: UACC-257 melanoma
# CAKI-1 renal = test system: CAKI-1 renal
# UACC-62 melanoma = test system: UACC-62 melanoma
Structure (SMILES),TGI (SNB-19 CNS) [µM],TGI (SN12C renal) [µM],TGI (NCI-H522 lung) [µM],TGI (SK-MEL-28 melanoma) [µM],TGI (SNB-75 CNS) [µM],TGI (KM12 colon) [µM],TGI (SF-295 CNS) [µM],TGI (UACC-257 melanoma) [µM],TGI (CAKI-1 renal) [µM],GI50 (SNB-19 CNS) [µM],GI50 (SN12C renal) [µM],GI50 (UACC-257 melanoma) [µM],GI50 (NCI-H522 lung) [nM],GI50 (SK-MEL-28 melanoma) [nM],GI50 (UACC-62 melanoma) [nM],TGI (UACC-62 melanoma) [µM],GI50 (KM12 colon) [nM],GI50 (CAKI-1 renal) [µM],GI50 (SF-295 CNS) [nM],GI50 (SNB-75 CNS) [nM]
CCOC(=O)C1SC(=Nc2ccc(Cl)cc2)N=C1C (stereo not given),35,31.3,33,40.9,44.7,36.1,34.9,–,–,–,–,–,–,–,–,–,–,–,–,–
CCOC(=O)NC(=O)c1cn(CCN2CCN(C(=O)CCCCCCCCCCC(=O)N3CCN(CCn4cc(C(=O)NC(=O)OCC)c(=O)[nH]c4=O)CC3)CC2)c(=O)[nH]c1=O,> 100,> 100,> 100,> 100,> 100,> 100,> 100,> 100,> 100,–,–,–,–,–,–,–,–,–,–,–
O=C(O)[C@@H](Cc1ccc2ccccc2c1)NC(=O)n1c2ccccc2c2ccccc21,17,17.7,2.21,46.8,–,14.3,8.97,> 100,46.2,3.57,3.94,11.9,356,11400,435,16.1,2180,3.54,2290,–
c1ccc2[nH]c(-c3ccc(Nc4nc(N5CCCCC5)nc(N5CCOCC5)n4)cc3)nc2c1,81.9,53.2,6.22,4.02,16.9,9.54,4.6,–,–,3.73,5.4,–,2360,1800,–,–,2850,–,1850,2100
O=c1c2cc(Br)ccc2nc(CCl)n1-c1ccc(O)c([N+](=O)[O-])c1,–,36,35.7,32.3,44,39.1,31.5,48.2,49.3,–,–,–,–,–,–,72.5,–,–,–,–
O=c1cc(/C=C/c2ccccc2)[nH]c2cc3c(cc12)OCO3,13.4,23.9,–,34.9,40.2,17.7,13.7,97.7,–,–,–,–,–,–,–,10.1,–,–,3000,–
CCCCN(CCCC)C(=O)/C(CC(=O)c1cccc2ccccc12)=N\NC(=O)c1cc2ccccc2cc1O,> 100,52.6,–,> 100,92.7,> 100,92.7,52.8,–,–,–,–,–,–,–,23.3,–,–,–,–
C[N+](C)(C)CC1CCCCC1O (stereo not given),–,> 100,> 100,> 100,> 100,–,> 100,> 100,> 100,–,–,–,–,–,–,> 100,–,–,–,–
c1ccc(N2N=C(c3ccco3)CC2c2ccco2)cc1 (stereo not given),> 100,> 100,> 100,> 100,> 100,> 100,> 100,–,–,–,–,–,–,–,–,> 100,–,–,–,–
O=C(/C=C/c1ccccc1)CC(=O)CCC(=O)Nc1ccc(Cl)cc1,> 100,> 100,> 100,–,–,> 100,> 100,> 100,> 100,–,–,–,–,–,–,> 100,–,–,–,–
Cc1c(C(=O)O)oc2ccc([N+](=O)[O-])cc12,> 100,> 100,> 100,> 100,–,> 100,> 100,> 100,> 100,–,–,–,–,–,–,> 100,–,–,–,–
O=C(O)c1ccccc1/C=N/N=C1c2ccccc2-c2ccccc21,> 100,> 100,> 100,> 100,–,58.7,61,> 100,> 100,–,–,–,–,–,–,> 100,–,–,–,–
Nc1ccc(/C=C/C(=O)NCc2cc3cc(-c4ccc(C(=O)N5CCC(F)(F)CC5)cc4)cc(-c4ccc(F)cc4)c3o2)cn1,> 100,> 100,> 100,> 100,> 100,> 100,> 100,> 100,–,3.96,0.0589,> 100,773,> 100000,> 100000,> 100,1210,–,–,> 100000
COc1ccc(CN2CCC/C=C/CC(Cl)(Cl)C2=O)cc1,95.4,> 100,59.4,> 100,64.8,> 100,68.6,–,> 100,–,–,–,–,–,–,> 100,–,–,–,–
Cn1c2c(c3ccccc31)CCN(CCN1CCN(c3cccc(Cl)c3)CC1)C2=O,–,> 100,> 100,> 100,–,–,–,–,–,–,–,–,–,–,–,> 100,–,–,–,–
Oc1ccccc1-c1nn(CNc2ccccc2Cl)c(=S)o1,> 100,> 100,> 100,–,–,> 100,> 100,> 100,> 100,> 100,78.2,> 100,> 100000,–,71700,> 100,> 100000,> 100,65200,–
C=C(C)C1C/C=C(/C)CCCC2(CCC3=C(CC(C(=C)C)C/C=C(/C)CCC3)O2)C(=O)C1 (stereo not given),> 100,> 100,> 100,> 100,> 100,> 100,> 100,> 100,–,–,–,–,–,–,–,> 100,–,–,–,–
C=C1C(=O)O[C@H]2[C@H]1CC/C(C=Nc1c(N)cc(C(F)(F)F)cc1Br)=C\CC[C@@]1(C)O[C@@H]21,13.2,3.51,2.96,3.66,3.67,3.97,7.96,3.61,–,3.46,1.5,1.64,1370,1880,1410,2.96,1800,–,2660,1270
COc1cnc2c(c1)C(=O)c1c-2n(CCCN2CCN(C)CC2)c(=O)c2cc([N+](=O)[O-])ccc12,5.01,–,2.39,–,2.95,7.8,0.483,5.87,2.8,0.399,–,2.46,479,–,–,–,2110,1.34,69.8,1550
CC(C)(Oc1ccc(/C=C/C(=O)c2ccc(Cl)cc2)cc1)C(=O)Nc1c(Cl)cccc1Cl,> 100,34.8,–,30.3,97.5,25,49.6,99.6,48.9,–,–,–,–,–,–,38,–,–,–,–
CSC(=NCCc1c[nH]c2ccccc12)NC#N,> 100,> 100,–,> 100,> 100,> 100,> 100,> 100,–,–,–,–,–,–,–,> 100,–,–,–,–
